{"source": "paper PMC10734772", "about": "(Turkish Journal of Chemistry, 2021)", "assay_type_in_all_cases": "cell-based", "key": {"[1]": {"assay": "MTT assay, Hek293T non-leukemic control cells", "conditions": "human, Hek293T cells (non-leukemic control cell line), read-out: Viability rate"}, "Jurkat": {"system": "Jurkat", "assay": "MTT assay, Jurkat cells", "conditions": "Homo sapiens, 24 h, read-out: Viability rate"}, "[2]": {"system": "K562, Nalm-6, Molt-4, Reh, Jurkat, Hek293T cell lines", "assay": "MTT assay, overall judgement over all cell lines", "conditions": "overall judgement in words; for 6 and 10: on all cell lines, except Reh", "experimental": "To evaluate in-vitro anti-cancer activity of the newly synthesized compounds, they were tested by using the MTT assay in the BCR-ABL positive leukemic cell line (K562), BCR-ABL negative leukemic cell lines (Nalm-6, Molt-4, Reh and Jurkat), and non-leukemic human embryonic kidney tissue (Hek293T) cell line. […] The viability rate of each concentration was calculated by the formula stated in material and methods, the viability rate results for each cell were presented in Table S2 and Figure S44."}, "K562": {"system": "K562", "assay": "MTT assay, K562 cells", "conditions": "Homo sapiens, 24 h, MTT, read-out: Viability rate", "method": "(§1) K562, Jurkat and Molt-4 cell lines were seeded as 4x10^5/ml, Reh and Nalm-6 cell lines were seeded 5x10^5/ml, Hek293T cell line was seed as 2x10^5/ml.\n(§2) MTT assay is a 3-day test. On the first day, cell count was performed in Bio Rad TC-20 device with the help of trypan blue, each cell line was prepared by diluting to the specified concentrations and seeded in a 96-well plate as 100μL to each well and incubated for 1 day.\n(§3) On the second day, stock solutions were subsequently diluted to various concentrations (0.3–200 μM) with related medium prior to experiments. Specified concentrations of the compounds were seeded in a 96-well plate as 100μL to each well and incubated for 24 h.\n(§4) After incubation (on the third day), to precipitate leukemia cells, the cell plate was centrifuged at 1500 rpm for 5 min. […] The 50 μl of supernatant was discarded from each well and 100 μl of DMSO was added to dissolve the formazan. Plates were shaken for 45 min to dissolve the dye. Then the optical density of each well was measured by using Thermo VarioSkan Flush Multimode Reader Quantum ST5-1100 at 570 nm wavelength.\n(§5) Subsequently, viability rate of the cells at each concentration, as percentage, was determined by following formula (1):\n(§6) Viability rate (%)=100-[(OD(control)-OD(sample))/OD(control)×100].OD=Optical Density\n(§7) The IC50 values were calculated by using GraphPad Prism. All the data presented as the mean of 6 replicates. […] Statistical analysis was performed using dose-response inhibition, log(inhibitor) vs response-variable slope, least squares (ordinary) fit."}, "Nalm-6": {"system": "Nalm-6", "assay": "MTT assay, Nalm-6 cells", "conditions": "Homo sapiens, 24 h, MTT, read-out: Viability rate", "method": "as §1, §2, §3, §4, §5, §6, §7"}, "Reh": {"system": "Reh", "assay": "MTT assay, Reh cells", "conditions": "Homo sapiens, 24 h, read-out: Viability rate"}, "Molt-4": {"system": "Molt-4", "assay": "MTT assay, Molt-4 cells", "conditions": "Homo sapiens, MOLT-4, 24 h, read-out: Viability rate"}}, "data": [{"compound": "Cc1ccnc(Nc2cc(NC(=O)c3ccc(CN4CCN(c5ncccn5)CC4)cc3)ccc2C)n1", "note": "[Compound 5, N-(4-Methyl-3-((4-methylpyrimidin-2-yl)amino)phenyl)-4-((4-(pyrimidin-2-yl)piperazin-1-yl)methyl)benzamide]", "values": [{"measurement": "viability at 24 h, 3 µM", "setting": "[1]; 3 μM", "result": "66.5 ± 0.11", "unit": "%"}, {"measurement": "viability at 24 h, 5 µM", "setting": "[1]; 5 μM", "result": "61 ± 0.13", "unit": "%"}, {"measurement": "viability at 24 h, 10 µM", "setting": "[1]; 10 μM", "result": "59.4 ± 0.08", "unit": "%"}, {"measurement": "viability at 24 h, 15 µM", "setting": "[1]; 15 μM", "result": "56.6 ± 0.1", "unit": "%"}, {"measurement": "viability at 24 h, 20 µM", "setting": "[1]; 20 μM", "result": "56.2 ± 0.03", "unit": "%"}, {"measurement": "viability at 24 h, 30 µM", "setting": "[1]; 30 μM", "result": "55.8 ± 0.05", "unit": "%"}, {"measurement": "viability at 24 h, 50 µM", "setting": "[1]; 50 μM", "result": "54.1 ± 0.04", "unit": "%"}, {"measurement": "viability at 24 h, 70 µM", "setting": "[1]; 70 μM", "result": "52.7 ± 0.03", "unit": "%"}, {"measurement": "viability at 24 h, 100 µM", "setting": "[1]; 100 μM", "result": "50.5 ± 0.02", "unit": "%"}, {"measurement": "viability at 24 h, 150 µM", "setting": "[1]; 150 μM", "result": "50.4 ± 0.02", "unit": "%"}, {"measurement": "viability at 24 h, 200 µM", "setting": "[1]; 200 μM", "result": "50 ± 0.04", "unit": "%"}, {"measurement": "viability at 3 µM", "setting": "Jurkat; 3 μM", "result": "90.1 ± 0.11", "unit": "%"}, {"measurement": "viability at 5 µM", "setting": "Jurkat; 5 μM", "result": "89.7 ± 0.09", "unit": "%"}, {"measurement": "viability at 10 µM", "setting": "Jurkat; 10 μM", "result": "89.6 ± 0.15", "unit": "%"}, {"measurement": "viability at 15 µM", "setting": "Jurkat; 15 μM", "result": "88.8 ± 0.09", "unit": "%"}, {"measurement": "viability at 20 µM", "setting": "Jurkat; 20 μM", "result": "88.8 ± 0.08", "unit": "%"}, {"measurement": "viability at 30 µM", "setting": "Jurkat; 30 μM", "result": "88.1 ± 0.1", "unit": "%"}, {"measurement": "viability at 50 µM", "setting": "Jurkat; 50 μM", "result": "83.4 ± 0.12", "unit": "%"}, {"measurement": "viability at 70 µM", "setting": "Jurkat; 70 μM", "result": "82.5 ± 0.07", "unit": "%"}, {"measurement": "viability at 100 µM", "setting": "Jurkat; 100 μM", "result": "80.8 ± 0.13", "unit": "%"}, {"measurement": "viability at 150 µM", "setting": "Jurkat; 150 μM", "result": "78.7 ± 0.12", "unit": "%"}, {"measurement": "viability at 200 µM", "setting": "Jurkat; 200 μM", "result": "66.5 ± 0.05", "unit": "%"}, {"measurement": "anticancer activity according to MTT assay results", "setting": "[2]", "result": "very poor activity"}, {"measurement": "viability at 1 µM", "setting": "K562; K562, 1 μM", "result": "103.1 ± 0.07", "unit": "%"}, {"measurement": "viability at 3 µM", "setting": "K562; K562, 3 μM", "result": "98.7 ± 0.08", "unit": "%"}, {"measurement": "viability at 5 µM", "setting": "K562; K562, 5 μM", "result": "99.7 ± 0.06", "unit": "%"}, {"measurement": "viability at 10 µM", "setting": "K562; K562, 10 μM", "result": "97 ± 0.05", "unit": "%"}, {"measurement": "viability at 15 µM", "setting": "K562; K562, 15 μM", "result": "99.5 ± 0.12", "unit": "%"}, {"measurement": "viability at 20 µM", "setting": "K562; K562, 20 μM", "result": "106.5 ± 0.04", "unit": "%"}, {"measurement": "viability at 30 µM", "setting": "K562; K562, 30 μM", "result": "102.7 ± 0.05", "unit": "%"}, {"measurement": "viability at 50 µM", "setting": "K562; K562, 50 μM", "result": "101.6 ± 0.12", "unit": "%"}, {"measurement": "viability at 70 µM", "setting": "K562; K562, 70 μM", "result": "100.1 ± 0.08", "unit": "%"}, {"measurement": "viability at 100 µM", "setting": "K562; K562, 100 μM", "result": "104.6 ± 0.1", "unit": "%"}, {"measurement": "viability at 150 µM", "setting": "K562; K562, 150 μM", "result": "104.3 ± 0.1", "unit": "%"}, {"measurement": "viability at 200 µM", "setting": "K562; K562, 200 μM", "result": "102.1 ± 0.14", "unit": "%"}, {"measurement": "viability at 1 µM", "setting": "Nalm-6; Nalm-6, 1 μM", "result": "95.8 ± 0.01", "unit": "%"}, {"measurement": "viability at 3 µM", "setting": "Nalm-6; Nalm-6, 3 μM", "result": "95 ± 0.02", "unit": "%"}, {"measurement": "viability at 5 µM", "setting": "Nalm-6; Nalm-6, 5 μM", "result": "92.4 ± 0.03", "unit": "%"}, {"measurement": "viability at 10 µM", "setting": "Nalm-6; Nalm-6, 10 μM", "result": "90.1 ± 0.02", "unit": "%"}, {"measurement": "viability at 15 µM", "setting": "Nalm-6; Nalm-6, 15 μM", "result": "84.1 ± 0.01", "unit": "%"}, {"measurement": "viability at 20 µM", "setting": "Nalm-6; Nalm-6, 20 μM", "result": "80.1 ± 0.02", "unit": "%"}, {"measurement": "viability at 30 µM", "setting": "Nalm-6; Nalm-6, 30 μM", "result": "78.6 ± 0.01", "unit": "%"}, {"measurement": "viability at 50 µM", "setting": "Nalm-6; Nalm-6, 50 μM", "result": "74.1 ± 0.01", "unit": "%"}, {"measurement": "viability at 70 µM", "setting": "Nalm-6; Nalm-6, 70 μM", "result": "71.9 ± 0.01", "unit": "%"}, {"measurement": "viability at 100 µM", "setting": "Nalm-6; Nalm-6, 100 μM", "result": "70.3 ± 0.01", "unit": "%"}, {"measurement": "viability at 150 µM", "setting": "Nalm-6; Nalm-6, 150 μM", "result": "70.2 ± 0.01", "unit": "%"}, {"measurement": "viability at 200 µM", "setting": "Nalm-6; Nalm-6, 200 μM", "result": "70.5 ± 0.01", "unit": "%"}, {"measurement": "viability at 1 µM", "setting": "Reh; 1 μM", "result": "96.6 ± 0.01", "unit": "%"}, {"measurement": "viability at 3 µM", "setting": "Reh; 3 μM", "result": "95.8 ± 0.05", "unit": "%"}, {"measurement": "viability at 5 µM", "setting": "Reh; 5 μM", "result": "95.7 ± 0.03", "unit": "%"}, {"measurement": "viability at 10 µM", "setting": "Reh; 10 μM", "result": "95.1 ± 0.04", "unit": "%"}, {"measurement": "viability at 15 µM", "setting": "Reh; 15 μM", "result": "94.9 ± 0.04", "unit": "%"}, {"measurement": "viability at 20 µM", "setting": "Reh; 20 μM", "result": "90.2 ± 0.03", "unit": "%"}, {"measurement": "viability at 30 µM", "setting": "Reh; 30 μM", "result": "87.9 ± 0.04", "unit": "%"}, {"measurement": "viability at 50 µM", "setting": "Reh; 50 μM", "result": "85.5 ± 0.05", "unit": "%"}, {"measurement": "viability at 70 µM", "setting": "Reh; 70 μM", "result": "81.4 ± 0.01", "unit": "%"}, {"measurement": "viability at 100 µM", "setting": "Reh; 100 μM", "result": "79.1 ± 0.01", "unit": "%"}, {"measurement": "viability at 150 µM", "setting": "Reh; 150 μM", "result": "79.1 ± 0.02", "unit": "%"}, {"measurement": "viability at 200 µM", "setting": "Reh; 200 μM", "result": 74, "unit": "%"}, {"measurement": "viability at 1 µM", "setting": "Molt-4; Molt-4, 1 μM", "result": "95.2 ± 0.08", "unit": "%"}, {"measurement": "viability at 3 µM", "setting": "Molt-4; Molt-4, 3 μM", "result": "84.6 ± 0.04", "unit": "%"}, {"measurement": "viability at 5 µM", "setting": "Molt-4; Molt-4, 5 μM", "result": "85.1 ± 0.11", "unit": "%"}, {"measurement": "viability at 10 µM", "setting": "Molt-4; Molt-4, 10 μM", "result": "84.8 ± 0.03", "unit": "%"}, {"measurement": "viability at 15 µM", "setting": "Molt-4; Molt-4, 15 μM", "result": "84.9 ± 0.11", "unit": "%"}, {"measurement": "viability at 20 µM", "setting": "Molt-4; Molt-4, 20 μM", "result": "85.8 ± 0.03", "unit": "%"}, {"measurement": "viability at 30 µM", "setting": "Molt-4; Molt-4, 30 μM", "result": "85.3 ± 0.06", "unit": "%"}, {"measurement": "viability at 50 µM", "setting": "Molt-4; Molt-4, 50 μM", "result": "86.1 ± 0.11", "unit": "%"}, {"measurement": "viability at 70 µM", "setting": "Molt-4; Molt-4, 70 μM", "result": "84.6 ± 0.05", "unit": "%"}, {"measurement": "viability at 100 µM", "setting": "Molt-4; Molt-4, 100 μM", "result": "83.5 ± 0.12", "unit": "%"}, {"measurement": "viability at 150 µM", "setting": "Molt-4; Molt-4, 150 μM", "result": "87.1 ± 0.09", "unit": "%"}, {"measurement": "viability at 200 µM", "setting": "Molt-4; Molt-4, 200 μM", "result": "86.6 ± 0.08", "unit": "%"}]}]}
